Reference: patent publication US20240324594A1, “Method for Controlling Diamide Resistant Pests and Compounds Therefor” (priority 2021, published 2024)

System: Resistant Plutella xylostella R1 (G4946E resistance mutation)
Assay: Resistant Plutella xylostella R1 (Diamond back moth) larvicide L3, feeding/contact
Assay type: in vivo
Details: CTPR used as standard
Method: Resistant Plutella xylostella R1 (Diamond back moth) larvicide L3, feeding/contact Chinese cabbage plants were sprayed with diluted test solutions in an application chamber. Cut off leaves were placed into petri dishes with wetted filter paper and infested 1 day after application with 10 L3 multi-resistant Plutella xylostella larvae having the G4946E resistance mutation. Samples were assessed 4 days after infestation for mortality and growth regulation. CTPR was used as standard and a resistance factor of 146 was obtained for this strain.
Plutella xylostella resistant strain R1 originally collected from Taiwan in 2012 that carries the RyR mutation G4946E conferring resistance to diamides. The strain is reared on cabbage plants (Brassica oleracea) and selected approximately every two weeks with chlorantraniliprole.

SMILES | resistance factor obtained for strain R1
CNC(=O)c1cc(Cl)cc(C)c1NC(=O)c1cc(Br)nn1-c1ncccc1Cl [CTPR, chlorantraniliprole] | 146

System: not given
Assay: not given
Details: not given

melting point | SMILES
142.2 to 160.3 °C | Cc1cc2nn[nH]c2c(C(N)=O)c1NC(=O)c1cc(OCC(F)(F)F)nn1-c1ncccc1Cl
233 to 240 °C | Cc1cc2cn[nH]c2c(C(N)=O)c1NC(=O)c1cc(Cn2nnc(C(F)(F)F)n2)nn1-c1ncccc1Cl
> 250 °C | Cc1nc2cc(C)c(NC(=O)c3cc(Br)nn3-c3ncccc3Cl)c(C(N)=O)c2o1
240 to 245 °C | Cc1cc2c(c(C(N)=O)c1NC(=O)c1cc(OCC(F)(F)F)nn1-c1ncccc1Cl)OC(F)(F)O2
147.5 to 161.2 °C | Cc1cc2nn[nH]c2c(C(N)=O)c1NC(=O)c1cc(OC(F)F)nn1-c1ncccc1Cl

System: Plutella xylostella (Diamond back moth) ryanodine receptor, containing the G4946E resistance mutation
Assay: In vitro calcium fluorescence assay (Fluo-8 NW, FDSS) in human embryonic kidney cells expressing the ryanodine receptor
Assay type: cell-based
Details: HEK cells expressing P. xylostella RyR G4946E; EC50 normalized against in-assay reference cyantraniliprole; ratio <=1 means equally or more active
Method: Human embryonic kidney cells expressing the Plutella xylostella (Diamond back moth) ryanodine receptor, containing the G4946E resistance mutation, are loaded with Fluo-8 No Wash (NW) calcium-sensitive dye which responds by fluorescence to a change in intracellular calcium (e.g. stimulated by activation of ryanodine receptor). Test compounds are added in 10 rates to a 384-well plate containing dye-loaded cells and the fluorescent signal is measured using the Hamamatsu FDSS (Functional Drug Screening system). Dose-response curves are plotted to estimate the EC50. EC50 are normalized against an in-assay reference standard (cyantraniliprole) to address inter-assay variability. The ratio for a given compound is then obtained by the following formula: REC50=EC50 (compound)/EC50 (cyantraniliprole).

SMILES | REC50 = EC50 (compound)/EC50 (cyantraniliprole)
Cc1cc2c(c(C(=O)NC(C)C)c1NC(=O)c1cc(C(F)(F)F)nn1-c1ncccc1Cl)OC(F)(F)O2 [2-(3-chloro-2-pyridyl)-N-[2,2-difluoro-4-(isopropylcarbamoyl)-6-methyl-1,3-benzodioxol-5-yl]-5-(trifluoromethyl)pyrazole-3-carboxamide] | 7.27
CNC(=O)c1c(NC(=O)c2cc(C(F)(F)F)nn2-c2ncccc2Cl)c(C)cc2c1OC(F)(F)O2 [2-(3-chloro-2-pyridyl)-N-[2,2-difluoro-6-methyl-4-(methylcarbamoyl)-1,3-benzodioxol-5-yl]-5-(trifluoromethyl)pyrazole-3-carboxamide] | 4.65
CNC(=O)c1c(NC(=O)c2cc(Cn3cc(C(F)(F)F)nn3)nn2-c2ncccc2Cl)c(C)cc2c1OC(F)(F)O2 [2-(3-chloro-2-pyridyl)-N-[2,2-difluoro-6-methyl-4-(methylcarbamoyl)-1,3-benzodioxol-5-yl]-5-[[4-(trifluoromethyl)triazol-1-yl]methyl]pyrazole-3-carboxamide] | 2.55
CNC(=O)c1c(NC(=O)c2cc(Cn3ncc(C(F)(F)F)n3)nn2-c2ncccc2Cl)c(C)cc2c1OC(F)(F)O2 [2-(3-chloro-2-pyridyl)-N-[2,2-difluoro-6-methyl-4-(methylcarbamoyl)-1,3-benzodioxol-5-yl]-5-[[4-(trifluoromethyl)triazol-2-yl]methyl]pyrazole-3-carboxamide] | 6.26
CNC(=O)c1c(NC(=O)c2cc(Cn3nnc(C(F)(F)F)n3)nn2-c2ncccc2Cl)c(C)cc2c1OC(F)(F)O2 [2-(3-chloro-2-pyridyl)-N-[2,2-difluoro-6-methyl-4-(methylcarbamoyl)-1,3-benzodioxol-5-yl]-5-[[5-(trifluoromethyl)tetrazol-2-yl]methyl]pyrazole-3-carboxamide] | 5.77
Cc1cc2c(c(C(N)=O)c1NC(=O)c1cc(C(F)(F)F)nn1-c1ncccc1Cl)OC(F)(F)O2 [Compound P19, N-(4-carbamoyl-2,2-difluoro-6-methyl-1,3-benzodioxol-5-yl)-2-(3-chloro-2-pyridyl)-5-(trifluoromethyl)pyrazole-3-carboxamide] | 0.50
Cc1cc2c(c(C(N)=O)c1NC(=O)c1cc(Cn3ncc(C(F)(F)F)n3)nn1-c1ncccc1Cl)OC(F)(F)O2 [Compound P21, N-(4-carbamoyl-2,2-difluoro-6-methyl-1,3-benzodioxol-5-yl)-2-(3-chloro-2-pyridyl)-5-[[4-(trifluoromethyl)triazol-2-yl]methyl]pyrazole-3-carboxamide] | 0.55
Cc1cc2c(c(C(N)=O)c1NC(=O)c1cc(Cn3cc(C(F)(F)F)nn3)nn1-c1ncccc1Cl)OC(F)(F)O2 [Compound P22, N-(4-carbamoyl-2,2-difluoro-6-methyl-1,3-benzodioxol-5-yl)-2-(3-chloro-2-pyridyl)-5-[[4-(trifluoromethyl)triazol-1-yl]methyl]pyrazole-3-carboxamide] | 0.91
Cc1cc2c(c(C(N)=O)c1NC(=O)c1cc(Cn3nnc(C(F)(F)F)n3)nn1-c1ncccc1Cl)OC(F)(F)O2 [Compound P24, N-(4-carbamoyl-2,2-difluoro-6-methyl-1,3-benzodioxol-5-yl)-2-(3-chloro-2-pyridyl)-5-[[5-(trifluoromethyl)tetrazol-2-yl]methyl]pyrazole-3-carboxamide] | 0.34

System: Resistant Plutella xylostella R4 (RyR mutation G4946E)
Assay: Resistant Plutella xylostella R4 (Diamond back moth) larvicide L1, feeding/contact
Assay type: in vivo
Details: CTPR used as standard
Method: Resistant Plutella xylostella R4 (Diamond back moth) larvicide L1, feeding/contact 24-well microtiter plates with artificial diet were treated with aqueous test solutions prepared from 10,000 ppm DMSO stock solutions by pipetting. After drying, around 30 Plutella eggs were pipetted through a plastic stencil onto a gel blotting paper and the plate was closed with it. The samples were assessed for mortality in comparison to untreated samples 8 days after infestation. CTPR was used as standard and a resistance factor of 242 was obtained for this strain
Plutella xylostella resistant strain R4 originated in the lab in 2021 from crossing the R1 strain with a lab-reared susceptible P. xylostella strain (SUS). R4 can be reared and tested on artificial diet and also carries the RyR mutation G4946E conferring resistance to diamides. The strain is selected approximately every two weeks with chlorantraniliprole.

SMILES | resistance factor obtained for strain R4
CNC(=O)c1cc(Cl)cc(C)c1NC(=O)c1cc(Br)nn1-c1ncccc1Cl [CTPR, chlorantraniliprole] | 242
